According to the NIST ThermoML archive (doi:10.1016/j.fluid.2014.04.025):
± gives the expanded uncertainty stated by the source.

How the values were obtained:
[1] = Liquid; for mass density: 293.15 K, 101.33 kPa, Densimeter; for Normal boiling temperature: Ebulliometric method (Recirculating still)
[2] = refractive index (Na D-line) (dimensionless); details: 293.15 K; 101.33 kPa; Liquid; Standard Abbe refractometry

Row | Structure (SMILES) | mass density [1] | Normal boiling temperature [1] | refractive index [2]
1 | C[S+](C)[O-] [dimethyl sulfoxide] | 1100.36 ± 0.14 kg/m3 | 189.03 ± 0.2 °C | 1.47987 ± 0.00034
2 | Cc1ccccc1 [toluene] | 867.02 ± 0.11 kg/m3 | 110.58 ± 0.2 °C | 1.49678 ± 0.00033
3 | COCCO [2-methoxyethan-1-ol] | 964.74 ± 0.12 kg/m3 | 124.48 ± 0.2 °C | 1.40234 ± 0.00034
